Data set [1] in a line: Tumor growth inhibition on different dosing schedules (HT-29), tolerability. The data set is classed as in vivo. Particulars: 10 mg/kg IP on days 1, 2, 3, 4 and 5; female nude mice with HT-29 xenografts. The method, then:
Female nude mice were implanted subcutaneously with 5×10^6 HT-29 cells in 100 μL PBS. Eleven to fourteen days later, tumors were measured and mice randomized into groups of seven with average tumor volume in each group of approximately 230 mm^3. Compound 4 was dissolved in normal saline immediately prior to dosing, and administered IP at a volume of 10 mL/kg. Dosing was vehicle alone on day 1 and day 2; and Compound 4 at 20 mg/kg on day 1; 20 mg/kg on days 1 and 2; 20 mg/kg on days 1 and 3; 5 mg/kg on days 1, 2 and 3; 10 mg/kg on days 1, 2 and 3; 10 mg/kg on days 1, 2, 3, 4 and 5; 10 mg/kg on days 1 and 2; and 10 mg/kg on days 1 and 3. Animal weights and tumor volumes were measured (using electronic calipers) twice a week. Tumor volume was calculated using the formula: volume=(width^2×length)/2. Dosing at 10 mg/kg on days 1, 2, 3, 4 and 5 was not tolerated (greater than 20% weight loss and/or death in some of the mice).

Data set [2] can be described thus: Determination of MTD in a Phase 1 study in patients with solid tumors. In kind it is in vivo. The text has this: A total of 13 patients with various solid tumors and with a median age of 66 years (range 40-79 years old) were enrolled in a human phase 1 clinical trial (see “Phase I Safety and Pharmacokinetic Study of ARRY-520 in Solid Tumors.” http://clinicaltrials.gov/ct2/show/NCT00462358, herein incorporated by reference). The solid tumors treated were breast cancer (2), colorectal cancer (2), non-small cell lung cancer (2), pancreatic cancer (2), bladder cancer, salivary gland cancer (adenoid cystic), esophageal cancer, mesothelioma cancer, and a mixed small cell lung cancer/non-small cell lung cancer. Compound 4 was provided for administration as a lyophilized powder contained in a Type 1 clear glass vial for IV use. The dose levels administered were 1.25 and 1.6 mg/m^2/day of Compound 4 on Days 1 and 2 every two weeks.

Data set [3] in a line: Determination of MTD in nude mice (HT-29 xenograft study). Particulars: mouse, in vivo; female nude mice with subcutaneous HT-29 xenografts; dissolved in normal saline. The method, then: Female nude mice were implanted subcutaneously with 5×10^6 HT-29 cells in 100 μL PBS. Ten days later, tumors were measured and mice randomized into groups of three with average tumor volume in each group of approximately 240 mm^3. Compound 4 was dissolved in normal saline immediately before dosing. It was determined that 20 mg/kg was the MTD for Compound 4. Dose volume was 10 mL/kg. Dosing was vehicle alone on day 1; and Compound 4 at 20 mg/kg on day 1; and 20 mg/kg on days 1 and 3. At various time points after dosing (24, 48, 72, 96, 120 and 144 hours), mice were euthanized by CO2 inhalation, and the tumors were harvested and immediately placed in formalin. The vehicle control group samples were collected 24 and 72 hours after dosing. The day 1 group samples were collected 24, 48, 72 and 96 hours after that dose. The day 1 and day 3 group samples were collected 72, 96, 120 and 144 hours after the first dose. Paraffin blocks of tumor tissue were prepared by standard procedures. […] Spindle structures were manually counted in three 40× areas of each sample, using a fluorescent microscope. Apoptosis was quantitated by manual counting of TUNEL positive cells, also in three 40× areas of each sample (TUNEL staining using the In Situ Cell Death Detection Kit, AP from Roche).

Regarding `CON(C)C(=O)N1N=C(c2cc(F)ccc2F)S[C@@]1(CCCN)c1ccccc1` [Compound 4, (S)-2-(3-aminopropyl)-5-(2,5-difluorophenyl)-N-methoxy-N-methyl-2-phenyl-1,3,4-thiadiazole-3(2H)-carboxamide], in data set [1], the “tolerability of dosing schedule” value was “not tolerated” and the “weight loss and/or death in some of the mice” value was “greater than 20%”. The compound further registered an MTD in data set [2] (IV on Days 1 and 2 every two weeks, 13 patients with solid tumors, dose levels 1.25 and 1.6 mg/m^2/day) of 1.25 mg/m^2/day. The “MTD, cumulative dose per cycle” value in data set [2] (IV on Days 1 and 2 every two weeks, patients with solid tumors) amounted to 2.5 mg/m^2. Also, the DLTs entry in data set [2] (human, in vivo, iv) is “Grade 3 hyponatremia, anorexia, AST increase and febrile neutropenia”. Moreover, the MTD in data set [3] amounted to 20 mg/kg.
